Assay results published in patent US20230091848A1, “DISEASE DETECTION AND TREATMENT BASED ON PHENYLACETYL GLUTAMINE LEVELS” (The Cleveland Clinic Foundation, priority 2020, published 2023).
Numbered stars: 1 amine (or outer) side, 2 acyl side, 3 side chain; on linkers, the order of the positions; unused ones are H or OH. Bridge positions count the residues as written; N and C are the ends. Square brackets hold non-standard residues; d marks the D form. Peptide text beside a SMILES is read from it. X1 = CC(=O)NC(C(=O)OC(C(C)C)C(N[*:1])C(=O)[*:2])C(O)C(C)C; PhLac = O=C(O)[CH](O)Cc1ccccc1; NMeT = CN[CH](C(=O)O)[CH](C)O; NMeA = CN[CH](C)C(=O)O; NMeDha = C=C(NC)C(=O)O

Key:
[1] = tested on: HEL92.1.7 cells; test: Dynamic mass redistribution (DMR) in HEL92.1.7 cells; format: cell-based, human
Method: (§1) Before proceeding for the experiments, cells were subjected to overnight incubation in reduced serum media opti-MEM. […] The cells were briefly centrifuged at room temperature at low speed (100 g for 10-15 sec) to allow settling down the cells at the bottom of the plate. After that, cells were allowed to temperature equilibrate for 1 h at room temperature prior to run DMR measurement. Firstly, basal DMR responses were graphed for around 15 min to obtain a baseline read that defines the zero level and also ensures the signal is stable. […] DMR response signal was recorded for 60-90 minutes post compound of interest addition.

[2] = tested on: MEG01 cells; test: Dynamic mass redistribution (DMR) in MEG01 cells; format: cell-based, human; details: inhibitor 10 μM; for DMR response to ATP after ADR inhibitors: ATP 50 μM; for DMR response of isoproterenol (ISO) after ADR inhibitors: ISO 10 μM; for PAGln-induced DMR response after ADR inhibitors: PAGln 100 μM, 30 min
Method: as §1

[3] = tested on: human platelet rich plasma (PRP); test: Platelet aggregometry in platelet rich plasma; format: cell-based; details: inhibitor 10 μM; PAGln 100 μM; ADP 2 μM
Method: ADP (up to 4 μM), TRAP6 (up to 10 μM) and collagen (up to 1.0 μg/mL) were used as indicated to initiate aggregation with constant stirring (600 rpm).

[4] = tested on: MEG01 cells; test: cAMP assay in MEG01 cells; format: cell-based, human; details: for PAGln induced intracellular cAMP production after ADR inhibitors: PAGln 100 μM, 5 min exposure, inhibitor 10 μM
Method: Real-time (RT) PCR in MEG01 cells: Total RNA was isolated from MEG01 cells following TRIZOL RNA isolation protocol post 40 h of siRNA transfection. […] Real time (RT) PCR was carried out following TaqMan Gene Expression Assays protocol using RT primers and probes of ADRA2A (assay Id Hs01099503_s1), ADRA2B (assay Id Hs00265081 s1) and ADRB2 (assay Id Hs00240532_s1) from ThermoFisher Scientific. cAMP assay in MEG01, Platelets and HEK293 cells: Intracellular cAMP levels were measured using CatchPoint Cyclic-AMP Fluorescent Assay Kit from molecular devices (Cat. R8089). Briefly, MEG01 cells were washed with 1×HBSS buffer with HEPES (20 mM; pH 7.4) and re-suspended in stimulation buffer (1×HBSS, HEPES (20 mM); pH 7.4, IBMX (0.5 mM), Rolipram (0.1 mM) and BSA (0.1%)). The cells were further seeded into 96 well cell culture plates with a density of ˜100 k cells per well in 100 μL stimulation buffer. Similarly, human washed platelets re-suspended very gently in stimulation buffer and seeded into a 96-well cell culture plates with ˜4-6 million platelets per well in 100 μL stimulation buffer. Both the MEG01 cells and platelets were kept thereafter at 37° C. incubator for 10 min before addition of the inhibitors or test compounds. Following incubation with stimulation buffer, 10 μL (10× concentration) of modulators/inhibitors (when necessary) were added and kept for 15 min at 37° C. […] The test compounds were made in buffer T (1×HBSS, HEPES (20 mM); pH 7.4, IBMX (0.5 mM) and Rolipram (0.1 mM)). The reaction was stopped by adding 50 μL of lysis buffer (provided in the kit CatchPoint Cyclic-AMP Fluorescent Assay Kit Cat. R8089-Molecular Devices), further added with IBMX (0.5 mM) and Rolipram (0.1 mM)) and agitated for 10 min in a plate shaker to facilitate cell lysis. Lysed cells are immediately proceeded to cAMP assay. For the quantification of cAMP, the lysed sample (40 μL), buffer control and cAMP calibrators were added in appropriate wells of a 96-well clear bottom, black wall cAMP assay plates (provided in the kit). Thereafter, reconstituted rabbit anti-cAMP antibody (40 μL) was added to all the wells and mix for 5 min on a plate shaker to ensure mixing. In the next step, reconstituted HRP-cAMP conjugate (40 μL) was added to every well, mixed properly and kept at room temperature for 2 h. The plate contents were aspirated thereafter and washed with wash buffer (300 μL (provided in the kit)) 4 times. Spotlight red substrate (provided in the kit) was added to each well minimizing the time between starting and finishing in dark. The plate was covered with aluminum foil and left at room temperature for at least 10 min before reading fluorescence intensity in a FlexStation 3 Multi-Mode Microplate Reader-Molecular devices. […] For cAMP assay in adherent cell lines, parental HEK293, and β2-HEK293 (stable) cells were seeded into 96-well cell culture microplates with approximately 50 k cells per well in DMEM (100 μL) media supplemented with FBS (10%), penicillin (100 U/mL) and streptomycin (100 μg/mL) in a humidified atmosphere at 37° C. in 5% CO2. Cells were grown for 24 h before proceeding for cAMP experiment following similar method as described for MEG01 cells. Intracellular Ca^2+ measurement: Intracellular Ca^2+ in MEG01, HEL92.1.7, parental HEK293, β2-HEK293 (stable) cells, empty vector (EV) transfected HEK293 cells, ADRA2A transfected HEK293 cells and in α2B-HEK293 stable cells was measured using FLIPR Calcium 5 Assay Kit-Molecular devices (Cat. R8186). […]

[5] = tested on: FeCl3-induced carotid artery injury model; test: Carotid artery FeCl3 injury thrombosis assay; format: in vivo, mice; details: carvedilol 1.5 g/kg for one week; PAGln i.p.
Method: Briefly, rhodamine 6G (100 μL; 0.5 mg/mL) was injected directly into the right jugular vein to label platelets. The left carotid artery was exposed and injured by placing a FeCl3-soaked filter paper for 1 minute. […] Time to cessation of blood flow through clot formation for all studies was determined by visual inspection by two different investigators. End points were set as cessation of blood flow for 30 seconds to 30 minutes.

[6] = target: T1, α2B ADR (Homo sapiens, UniProt P18089); test: DMR in α2B-HEK293 (stable) cells; format: cell-based
T1 construct: expressed in transfected cells
T1 sequence (P18089 1-450): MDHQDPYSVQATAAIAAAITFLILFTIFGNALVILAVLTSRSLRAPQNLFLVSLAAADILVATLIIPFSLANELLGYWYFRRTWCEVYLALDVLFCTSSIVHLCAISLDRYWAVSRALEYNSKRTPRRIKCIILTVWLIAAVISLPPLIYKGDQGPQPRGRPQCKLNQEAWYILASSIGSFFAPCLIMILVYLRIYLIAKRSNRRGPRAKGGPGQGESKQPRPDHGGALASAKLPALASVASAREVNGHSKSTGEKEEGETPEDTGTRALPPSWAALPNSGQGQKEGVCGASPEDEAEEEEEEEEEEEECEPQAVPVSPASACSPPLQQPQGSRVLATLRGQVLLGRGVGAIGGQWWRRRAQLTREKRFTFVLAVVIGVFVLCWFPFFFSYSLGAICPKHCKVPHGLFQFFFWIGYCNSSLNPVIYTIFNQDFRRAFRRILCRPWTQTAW

[7] = target: T2, α2A ADR (Homo sapiens, UniProt P08913); test: DMR in α2A-HEK293 (transient) cells; format: cell-based
T2 construct: DYK (FLAG, DYKDDDDK) (N); host or cells: HEK293 (transient, Lipofectamine 3000)
T2 sequence (P08913 1-465): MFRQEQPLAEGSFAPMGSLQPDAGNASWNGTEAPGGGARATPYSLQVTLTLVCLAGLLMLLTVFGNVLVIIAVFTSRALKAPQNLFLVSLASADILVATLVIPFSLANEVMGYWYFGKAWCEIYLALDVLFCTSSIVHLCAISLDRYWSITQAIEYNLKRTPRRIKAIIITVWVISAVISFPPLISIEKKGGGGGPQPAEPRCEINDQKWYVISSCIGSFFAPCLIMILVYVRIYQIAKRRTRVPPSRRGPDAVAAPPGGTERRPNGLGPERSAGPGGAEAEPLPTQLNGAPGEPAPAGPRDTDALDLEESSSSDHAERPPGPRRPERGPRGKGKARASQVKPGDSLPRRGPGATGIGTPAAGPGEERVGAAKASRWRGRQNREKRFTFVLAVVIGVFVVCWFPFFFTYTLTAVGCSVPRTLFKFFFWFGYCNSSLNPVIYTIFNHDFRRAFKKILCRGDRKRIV
Method: The cells were grown in DMEM (100 μL) media supplemented with FBS (10%), penicillin (100 U/mL) and streptomycin (100 μg/mL) in a humidified atmosphere at 37° C. in 5% CO2 for 1 day before proceeding for the DMR experiments. For gain of function studies of α2A ADR, parental HEK293 cells were transfected with pcDNA3.1(+)-N-DYK empty vector or with pcDNA3.1(+)-ADRA2A-N-DYK clone (clone id: OHu19050C-GenScript) using Lipofactamine 3000 Transfection kit-Invitrogen (Cat. L3000008). DMR studies were performed on transiently transfected cells after 2 days post transfection. Prior to run the DMR experiment, cells were washed with 1×HBSS buffer with HEPES (20 mM, pH 7.4) and allowed to temperature equilibrate for 1 h at room temperature in 100 μL of the same buffer. Basal DMR response were graphed for around 15 min to obtain a baseline read that defines the zero level and also ensures the signal is stable.

[8] = tested on: washed human platelets; test: cAMP assay in washed human platelets; format: cell-based
Method: Real-time (RT) PCR in MEG01 cells: Total RNA was isolated from MEG01 cells following TRIZOL RNA isolation protocol post 40 h of siRNA transfection. […] Real time (RT) PCR was carried out following TaqMan Gene Expression Assays protocol using RT primers and probes of ADRA2A (assay Id Hs01099503_s1), ADRA2B (assay Id Hs00265081 s1) and ADRB2 (assay Id Hs00240532_s1) from ThermoFisher Scientific. cAMP assay in MEG01, Platelets and HEK293 cells: Intracellular cAMP levels were measured using CatchPoint Cyclic-AMP Fluorescent Assay Kit from molecular devices (Cat. R8089). Briefly, MEG01 cells were washed with 1×HBSS buffer with HEPES (20 mM; pH 7.4) and re-suspended in stimulation buffer (1×HBSS, HEPES (20 mM); pH 7.4, IBMX (0.5 mM), Rolipram (0.1 mM) and BSA (0.1%)). The cells were further seeded into 96 well cell culture plates with a density of ˜100 k cells per well in 100 μL stimulation buffer. Similarly, human washed platelets re-suspended very gently in stimulation buffer and seeded into a 96-well cell culture plates with ˜4-6 million platelets per well in 100 μL stimulation buffer. Both the MEG01 cells and platelets were kept thereafter at 37° C. incubator for 10 min before addition of the inhibitors or test compounds. Following incubation with stimulation buffer, 10 μL (10× concentration) of modulators/inhibitors (when necessary) were added and kept for 15 min at 37° C. […] For the quantification of cAMP, the lysed sample (40 μL), buffer control and cAMP calibrators were added in appropriate wells of a 96-well clear bottom, black wall cAMP assay plates (provided in the kit). […] The plate was covered with aluminum foil and left at room temperature for at least 10 min before reading fluorescence intensity in a FlexStation 3 Multi-Mode Microplate Reader-Molecular devices. […] Intracellular Ca^2+ measurement: Intracellular Ca^2+ in MEG01, HEL92.1.7, parental HEK293, β2-HEK293 (stable) cells, empty vector (EV) transfected HEK293 cells, ADRA2A transfected HEK293 cells and in α2B-HEK293 stable cells was measured using FLIPR Calcium 5 Assay Kit-Molecular devices (Cat. R8186). […]

SMILES	DMR response to ATP after ADR inhibitors [2]	DMR response of isoproterenol (ISO) after ADR inhibitors [2]	PAGln-induced DMR response after ADR inhibitors [2]	PAGln induced hyperresponsiveness of platelet aggregation [3]	intracellular cAMP production after ISO treatment, with ADR inhibitors [4]	PAGln induced intracellular cAMP production after ADR inhibitors [4]	other results
C=C1C(=O)NC(C)C(=O)N(C)C(C)C(=O)NC(C(OC(=O)C(NC(C)=O)C(O)C(C)C)C(C)C)C(=O)N(C)C(C(C)OC)C(=O)OC(C)C(NC(C)=O)C(=O)OC(Cc2ccccc2)C(=O)N1C (centres unmarked) [YM-254890] (Ac-T[PhLac][NMeDha]A[NMeA][X1][NMeT](Me); ester 1-C; configuration not given here)	–	–	–	–	–	–	PAGln induced DMR response after G-protein modulators [1]: significant reduction in PAGln induced DMR response
CC(C)NCC(O)COc1cccc2ccccc12 (centres unmarked) [propranolol]	remained unchanged	diminished	substantially reduced	attenuated the PAGln induced hyperresponsiveness	reduced	inhibited PAGln (5 min exposure) induced intracellular cAMP production	–
COc1ccccc1OCCNCC(O)COc1cccc2[nH]c3ccccc3c12 (centres unmarked) [carvedilol]	–	–	–	–	–	–	pro-thrombotic effect of PAGln on clot formation rate and occlusion time [5]: reversed by pretreatment of mice with carvedilol
COC1(C2=NCCN2)COc2ccccc2O1 (centres unmarked) [RX821002]	remained unchanged	–	substantially reduced	attenuated the PAGln induced hyperresponsiveness	–	–	DMR response of B-HT933 after ADR inhibitor ([2]; B-HT933 50 μM): appropriately inhibited; B-HT933-elicited DMR response after ADR inhibitor [6]: attenuated by RX821002; PAGln-induced DMR response after ADR inhibitor ([6]; inhibitor 10 μM, 30 min): reversed; B-HT933-elicited DMR response after ADR inhibitor [7]: attenuated by RX821002; PAGln-induced DMR response after ADR inhibitor ([7]; inhibitor 10 μM, 30 min): reversed
Cc1ccc(OCC(O)C(C)NC(C)C)c2c1CCC2 (centres unmarked) [ICI118,551]	remained unchanged	diminished	substantially reduced	–	reduced	inhibited PAGln (5 min exposure) induced intracellular cAMP production	intracellular cAMP production after ISO treatment, with ADR inhibitors [8]: reduced; PAGln induced intracellular cAMP production after ADR inhibitors ([8]; PAGln 5 min exposure): inhibited PAGln (5 min exposure) induced intracellular cAMP production
